Assays:
Format in all cases: in vivo
[1] = test system: japonica rice (ORYSP, Oryza sativa); test: Test G paddy, alone and in combination: japonica rice; conditions: evaluated after 14 days
Description: (§1) Seeds of smallflower umbrella sedge (CYPDI, Cyperus difformis) and ducksalad (HETLI, Heteranthera limosa) were sown on the soil surface in two separate quadrants of 11 cm tubs filled with steam pasteurized Tama soil. Simultaneously, plantings of barnyardgrass (ECHCG, Echinochloa crus-galli) and japonica rice (ORYSP, Oryza sativa) were established in separate “plug” flats. Plants were grown in a greenhouse using supplemental lighting to maintain a photoperiod of approximately 16 h; daytime and nighttime temperatures were approximately 27-30° C. and 19-22° C., respectively. After 8 days, barnyardgrass plants were transplanted to one of the remaining quadrants of the tub, and the water level was adjusted to a final depth of 3 cm. Herbicide application timing was targeted at the 2.0 to 2.5 leaf stage and the plants were treated with test chemicals formulated in a non-phytotoxic solvent. Treated plants and controls were maintained in a greenhouse for 14 days, after which time all species were compared to controls and visually evaluated. Plant response ratings are summarized in Tables G1 through G3, and are based on a scale of 0 to 100 where 0 is no effect and 100 is complete control. A dash (-) response means no test result.

[2] = test system: barnyardgrass (ECHCG, Echinochloa crus-galli); test: Test G paddy, alone and in combination: barnyardgrass; conditions: evaluated after 14 days
Description: as §1

[3] = test system: smallflower umbrella sedge (CYPDI, Cyperus difformis); test: Test G paddy, alone and in combination: smallflower umbrella sedge; conditions: evaluated after 14 days
Description: as §1

[4] = test system: ducksalad (HETLI, Heteranthera limosa); test: Test G paddy, alone and in combination: ducksalad; conditions: evaluated after 14 days
Description: as §1

[5] = test system: wheat (TRZAW, Triticum aestivum); test: Test H post-emergence, alone and in combination: wheat
Text: (§2) Seeds of plant species selected from wheat (TRZAW, Triticum aestivum), barley (HORBW, Hordeum vulgare), Kochia (KCHSC, Kochia caoparia) blackgrass (ALOMY, Alopecurus myosuroides), canarygrass (PHAMI, Phalaris minor), Italian ryegrass (LOLMU, Lolium multiflorum) common lambsquarter (CHEAL, Chenopodium album), pigweed (AMARE, Amaranthus retroflexus), Common Chickweed (STEME, Stellaria media), Russian thistle (SASKR, Salsola iberica), Wild Buckwheat (POLCO, Polygonum convolvulus), Catchweed Bedstraw (GALAP, Galium aparine), Mustard (SINAR, Sinapisar arvensis), Henbit Deadnettle (LAMAM, Lamium amplexicaule), Wild Radish (RAPRA, Raphanus raphanistrum), Field Poppy (PAPRH, Papaver rhoeas), Field Violet (VIOAR, Viola arvennsis), Scentless Chamomile (MATIN Matricaria inodora) were planted into soil and treated post-emergence with test chemicals formulated in a non-phytotoxic solvent mixture. Plants were grown in a greenhouse using supplemental lighting to maintain a photoperiod of approximately 14 hours; daytime and nighttime temperatures were approximately 23°-29° and 16°-19° Celsius, respectively. Balanced fertilizer was applied through the watering system. Treated plants and controls were maintained in a greenhouse for 20 days, after which time all species were compared to controls and visually evaluated. Plant response ratings were calculated as the mean of three replicates (unless otherwise indicated), are summarized in Table G, and are based on a scale of 0 to 100 where 0 is no effect and 100 is complete control. A dash (-) response means no test result.

[6] = test system: barley (HORBW, Hordeum vulgare); test: Test H post-emergence, alone and in combination: barley
Text: as §2

[7] = test system: Kochia (KCHSC, Kochia caoparia); test: Test H post-emergence, alone and in combination: Kochia
Text: as §2

[8] = test system: blackgrass (ALOMY, Alopecurus myosuroides); test: Test H post-emergence, alone and in combination: blackgrass
Text: as §2

[9] = test system: canarygrass (PHAMI, Phalaris minor); test: Test H post-emergence, alone and in combination: canarygrass
Text: as §2

[10] = test system: Italian ryegrass (LOLMU, Lolium multiflorum); test: Test H post-emergence, alone and in combination: Italian ryegrass
Text: as §2

[11] = test system: common lambsquarter (CHEAL, Chenopodium album); test: Test H post-emergence, alone and in combination: common lambsquarter
Text: as §2

[12] = test system: pigweed (AMARE, Amaranthus retroflexus); test: Test H post-emergence, alone and in combination: pigweed
Text: as §2

[13] = test system: Common Chickweed (STEME, Stellaria media); test: Test H post-emergence, alone and in combination: Common Chickweed
Text: as §2

[14] = test system: Russian thistle (SASKR, Salsola iberica); test: Test H post-emergence, alone and in combination: Russian thistle
Text: as §2

[15] = test system: Wild Buckwheat (POLCO, Polygonum convolvulus); test: Test H post-emergence, alone and in combination: Wild Buckwheat
Text: as §2

[16] = test system: Catchweed Bedstraw (GALAP, Galium aparine); test: Test H post-emergence, alone and in combination: Catchweed Bedstraw
Text: as §2

[17] = test system: Mustard (SINAR, Sinapisar arvensis); test: Test H post-emergence, alone and in combination: Mustard
Text: as §2

[18] = test system: Henbit Deadnettle (LAMAM, Lamium amplexicaule); test: Test H post-emergence, alone and in combination: Henbit Deadnettle
Text: as §2

[19] = test system: Wild Radish (RAPRA, Raphanus raphanistrum); test: Test H post-emergence, alone and in combination: Wild Radish
Text: as §2

[20] = test system: Field Poppy (PAPRH, Papaver rhoeas); test: Test H post-emergence, alone and in combination: Field Poppy
Text: as §2

[21] = test system: Field Violet (VIOAR, Viola arvennsis); test: Test H post-emergence, alone and in combination: Field Violet
Text: as §2

[22] = test system: Scentless Chamomile (MATIN Matricaria inodora); test: Test H post-emergence, alone and in combination: Scentless Chamomile
Text: as §2

COC(=O)c1ccccc1CS(=O)(=O)NC(=O)Nc1nc(OC)cc(OC)n1 [b2a, bensulfuron-methyl]
ORYSP plant response rating (scale of 0 to 100) ([1]; Rate 16 g/ha): 0
ORYSP plant response rating (scale of 0 to 100) ([1]; Rate 31 g/ha): 0
ORYSP plant response rating (scale of 0 to 100) ([1]; Rate 32 g/ha): 0
ORYSP plant response rating (scale of 0 to 100) ([1]; Rate 62 g/ha): 0
ORYSP plant response rating (scale of 0 to 100) ([1]; Rate 64 g/ha): 0
ORYSP plant response rating (scale of 0 to 100) ([1]; Rate 125 g/ha): 0
ECHCG plant response rating (scale of 0 to 100) ([2]; Rate 16 g/ha): 60
ECHCG plant response rating (scale of 0 to 100) ([2]; Rate 31 g/ha): 68
ECHCG plant response rating (scale of 0 to 100) ([2]; Rate 32 g/ha): 60
ECHCG plant response rating (scale of 0 to 100) ([2]; Rate 62 g/ha): 75
ECHCG plant response rating (scale of 0 to 100) ([2]; Rate 64 g/ha): 68
ECHCG plant response rating (scale of 0 to 100) ([2]; Rate 125 g/ha): 75
CYPDI plant response rating (scale of 0 to 100) ([3]; Rate 16 g/ha): 90
CYPDI plant response rating (scale of 0 to 100) ([3]; Rate 31 g/ha): 90
CYPDI plant response rating (scale of 0 to 100) ([3]; Rate 32 g/ha): 90
CYPDI plant response rating (scale of 0 to 100) ([3]; Rate 62 g/ha): 93
CYPDI plant response rating (scale of 0 to 100) ([3]; Rate 64 g/ha): 90
CYPDI plant response rating (scale of 0 to 100) ([3]; Rate 125 g/ha): 93
HETLI plant response rating (scale of 0 to 100) ([4]; Rate 16 g/ha): 90
HETLI plant response rating (scale of 0 to 100) ([4]; Rate 31 g/ha): 95
HETLI plant response rating (scale of 0 to 100) ([4]; Rate 32 g/ha): 90
HETLI plant response rating (scale of 0 to 100) ([4]; Rate 62 g/ha): 98
HETLI plant response rating (scale of 0 to 100) ([4]; Rate 64 g/ha): 95
HETLI plant response rating (scale of 0 to 100) ([4]; Rate 125 g/ha): 98

COC(=O)c1ccc(C(F)(F)F)nc1S(=O)(=O)NC(=O)Nc1nc(OC)cc(OC)n1 [b2b, flupyrsulfuron-methyl]
TRZAW plant response ([5]; Rate 8): 0
TRZAW plant response ([5]; Rate 16): 5
TRZAW plant response ([5]; Rate 31): 5
TRZAW plant response ([5]; Rate 62): 25
HORBW plant response ([6]; Rate 8): 20
HORBW plant response ([6]; Rate 16): 30
HORBW plant response ([6]; Rate 31): 60
HORBW plant response ([6]; Rate 62): 70
KCHSC plant response ([7]; Rate 8): 75
KCHSC plant response ([7]; Rate 16): 100
KCHSC plant response ([7]; Rate 31): 80
KCHSC plant response ([7]; Rate 62): 95
ALOMY plant response ([8]; Rate 8): 100
ALOMY plant response ([8]; Rate 16): 100
ALOMY plant response ([8]; Rate 31): 100
ALOMY plant response ([8]; Rate 62): 100
PHAMI plant response ([9]; Rate 8): 40
PHAMI plant response ([9]; Rate 16): 55
PHAMI plant response ([9]; Rate 31): 85
PHAMI plant response ([9]; Rate 62): 90
LOLMU plant response ([10]; Rate 8): 60
LOLMU plant response ([10]; Rate 16): 60
LOLMU plant response ([10]; Rate 31): 65
LOLMU plant response ([10]; Rate 62): 80
CHEAL plant response ([11]; Rate 8): 60
CHEAL plant response ([11]; Rate 16): 85
CHEAL plant response ([11]; Rate 31): 75
CHEAL plant response ([11]; Rate 62): 80
AMARI plant response ([12]; Rate 8): 100
AMARI plant response ([12]; Rate 16): 100
AMARI plant response ([12]; Rate 31): 100
AMARI plant response ([12]; Rate 62): 100
STEME plant response ([13]; Rate 8): 90
STEME plant response ([13]; Rate 16): 100
STEME plant response ([13]; Rate 31): 100
STEME plant response ([13]; Rate 62): 100
SASKR plant response ([14]; Rate 8): 50
SASKR plant response ([14]; Rate 16): 50
SASKR plant response ([14]; Rate 31): 50
SASKR plant response ([14]; Rate 62): 60
POLCO plant response ([15]; Rate 8): 100
POLCO plant response ([15]; Rate 16): 85
POLCO plant response ([15]; Rate 31): 100
POLCO plant response ([15]; Rate 62): 100
GALAP plant response ([16]; Rate 8): 90
GALAP plant response ([16]; Rate 16): 95
GALAP plant response ([16]; Rate 31): 90
GALAP plant response ([16]; Rate 62): 100
SINAR plant response ([17]; Rate 8): 100
SINAR plant response ([17]; Rate 16): 95
SINAR plant response ([17]; Rate 31): 100
SINAR plant response ([17]; Rate 62): 100
LAMAM plant response ([18]; Rate 8): 90
LAMAM plant response ([18]; Rate 16): 95
LAMAM plant response ([18]; Rate 31): 95
LAMAM plant response ([18]; Rate 62): 90
RAPRA plant response ([19]; Rate 8): 100
RAPRA plant response ([19]; Rate 16): 100
RAPRA plant response ([19]; Rate 31): 100
RAPRA plant response ([19]; Rate 62): 100
PAPRH plant response ([20]; Rate 8): 100
PAPRH plant response ([20]; Rate 16): 90
PAPRH plant response ([20]; Rate 31): 100
PAPRH plant response ([20]; Rate 62): 95
VIOAR plant response ([21]; Rate 8): 50
VIOAR plant response ([21]; Rate 16): 75
VIOAR plant response ([21]; Rate 31): 70
VIOAR plant response ([21]; Rate 62): 95
MATIN plant response ([22]; Rate 8): 90
MATIN plant response ([22]; Rate 16): 95
MATIN plant response ([22]; Rate 31): 100
MATIN plant response ([22]; Rate 62): 95

From patent US9302999B2, “Substituted triazoles as herbicides” (E. I. DU PONT DE NEMOURS AND COMPANY, priority 2012, dated 2016)
